For 16 molecules, IC50 and EC50 results are on record in patent US10508103B2, “Benzimidazole-linked indole compound acting as novel divalent IAP antagonist” (MEDSHINE DISCOVERY INC., priority 2016, dated 2019).

Where only a bound is given, the exact number is not on record here.

Assay [1] deals with cIAP1-BIR3 Protein (Homo sapiens (Human), UniProt Q13490). The experiment in a line: Fluorescence polarization affinity of compounds to cIAP1-BIR3. As to conditions: cIAP1-BIR3 20 nM; 5 nM ARPFAQ-K(5-FAM)-NH2 probe; FP; pH 7.5; read-out: affinity to target protein in vitro, cIAP1-BIR3 Protein (IC50). The assay is classed as binding. The method, then:
(§1) Biological Assay 1: affinity of compounds to cIAP1-BIR3, cIAP2-BIR3, XIAP-BIR3 • 1) Affinity of compounds listed in table to cIAP1-BIR3, Ciap2-BIR3, XIAP-BIR3 was tested referring to Nikolovska-Colesks, Z. et.Al. (Analytical Biochemistry,2004,232:261-273) to obtain IC50 value. Generally speaking, in 10-dose IC50 mode, IAP antagonists with different concentrations were diluted in series by 3-fold and fluorescence labelled ARPFAQ-K (5-FAM)-NH2 peptide was used as probe to test compounds binding to protein BIR3 domain. • 2) Test condition: cIAP1-BIR3: 20 nM; cIAP2-BIR3: 60 nM; XIAP-BIR3: 30 nM; 5 nM probe in 100 mM tripotassium phosphate, pH 7.5, 0.1 mg/mL BSA, 0.005% Triton X100 and 0.5% DMSO. • 3) Test procedure: compounds were added into protein with different concentrations by using ECHO (LabCyte), and then the mixture was preincubated for 15 min. The probe was added and the final concentration was 5 nM. After incubating for 60 min, FP was tested and mP was calculated. Experiment results were list in table 1.

The target in assay [2] is cIAP2-BIR3 Protein (Homo sapiens (Human), UniProt Q13489). The experiment in a line: Fluorescence polarization affinity of compounds to cIAP2-BIR3. The format is binding. As to conditions: cIAP2-BIR3 60 nM; 5 nM ARPFAQ-K(5-FAM)-NH2 probe; FP; pH 7.5; read-out: affinity to target protein in vitro, cIAP2-BIR3 Protein (IC50). The method, then:
as §1
(Polarisation of emitted light reports the rotation of a fluorescent probe.)

The target of assay [3] is XIAP-BIR3 Protein (Homo sapiens (Human), UniProt P98170). The experiment in a line: Fluorescence polarization affinity of compounds to XIAP-BIR3. The assay is classed as binding. The settings on record: XIAP-BIR3 30 nM; 5 nM ARPFAQ-K(5-FAM)-NH2 probe; FP; pH 7.5; read-out: affinity to target protein in vitro, XIAP-BIR3 Protein (IC50). The method, then: as §1
Assay [4] has as its system NF-κB Luciferase Reporter Hela cells. The experiment in a line: TNF-α inducing NF-κB reporter. The assay is classed as cell-based. As to the method:
Biological Assay 2: TNF-α inducing NF-κB reporter
• 1) tested compounds were added into DMSO to give parent liquor (10 mM); • 2) reference compound Birinapant (32 μL, 10 mM) was added into DMSO (128 μL) to give a solution (2 mM); • 3) 0.5 μL reference compound Birinapant (2 mM) and tested compounds (10 mM) were taken by Echo and added into Greiner 96 well black cell culture plate respectively. The initial concentration of the reference compound and tested compound was 10 μM and 50 μM, respectively. Then, the reference compound and tested compounds were diluted at 9 points in series by 5-fold; and every plate was repeated for 3 times. • 4) the reference compound WXFL2012A001 (Birinapant) (final concentration: 10 μM) as HPE and DMSO (final concentration: 0.5%) as ZPE.
• 5) purpose of the three repeated plates: the first plate was used for testing compounds' activity;
the second plate was used for testing cytotoxicity of the compounds; the third plate was used for solution replacement of the first and second plates: mixing inducer TNF-α and medium containing 0.1% FBS, and then being added to the third plate and the resultant mixture was transferred to the first plate where supernatants had been removed.
• 1) removing medium in NF-iBLuciferase Reporter Hela cell culture flask and washing cell once with PBS (10 mL) • 2) adding 0.25% pancreatin (3 mL) to T150 cell culture flask, and placinginto cell incubator (37° C., 5%CO2) and dissociating cell for 3 min, and then medium (10 mL) was added to end dissociation and blowing cells with electric pipette until cells were dispersed into single cell. • 3) Calculating cell density with cell counter Countstar • 4) Adjusting NF-κB Luciferase Reporter Hela density with medium to 2.0×10^5 cells/mL • 5) Adding cells to two Greiner 96 well black cell culture plates containing compounds, (100 μL per well (2.0×10^4 cells/well)), one plate was used for testing compounds' activity, another was used for testing cytotoxicity of the compounds. • 6) Placing cell culture plates into cell incubator (37° C., 5%CO2) and incubatingfor 24 h Second Day TNF-α Inducing • 1) TNF-α (100 μg/mL) was diluted into 20 ng/mL with 0.1% FBS medium and transferredto the third plate with 100 μL per well • 2) Removing medium of the first 96 well black cell culture plate (compound activity testing plate) after 24 h, replacing with fresh medium containing the compound and 20 ng/mL TNF-α in the third plate • 3) Placing cell culture plate into cell incubator (37° C., 5% CO2) and incubatingfor 6 h • 4) after 6 h, compound's activity in the first plate was tested according to Bright-Glo (Promega) manual method, luciferase signal in each well was tested by Envision plate reader • 5) compound's cytotoxicity in the second plate was tested according to ATPlite 1Step (Perkin Elmer) manual method, luciferase signal in each well was tested by Envision plate reader • 6) analyzing with software to obtain EC50 of compound.

[5] abbreviates: Homo sapiens, 6 h, Table 3, 20 ng/mL TNF-α, Bright-Glo luciferase, values given as ranges.
The mark [6] stands for this setting: Homo sapiens, 6 h, Table 4, 20 ng/mL TNF-α, Bright-Glo luciferase, exact values with control Birinapant.

By IC50 is commonly meant the concentration that gives 50% inhibition. By EC50 is commonly meant the concentration that produces a half-maximal response. Read a low EC50 as a more potent agent.

XIAP-BIR3 Protein, sequence (P98170 241-356): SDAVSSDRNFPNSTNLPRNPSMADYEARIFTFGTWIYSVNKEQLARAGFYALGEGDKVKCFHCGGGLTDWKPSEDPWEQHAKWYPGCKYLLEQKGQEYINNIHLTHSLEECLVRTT
cIAP1-BIR3 Protein, sequence (Q13490 253-363): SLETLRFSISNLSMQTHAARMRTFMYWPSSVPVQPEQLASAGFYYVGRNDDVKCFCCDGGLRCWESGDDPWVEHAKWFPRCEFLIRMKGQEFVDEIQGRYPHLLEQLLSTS
cIAP2-BIR3 Protein, sequence (Q13489 238-349): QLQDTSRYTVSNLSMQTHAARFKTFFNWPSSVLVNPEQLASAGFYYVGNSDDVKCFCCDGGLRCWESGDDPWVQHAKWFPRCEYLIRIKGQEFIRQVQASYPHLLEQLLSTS

Consider `CC[C@H](NC(=O)[C@H](C)NC)C(=O)N1CCC[C@H]1Cc1c(-c2nc3cc(F)ccc3n2C[C@@H]2CCCN2C(=O)[C@@H](NC(=O)[C@H](C)NC)C(C)C)[nH]c2cc(F)ccc12` [Embodiment 2], for which the IC50 in assay [1] was less than 10 nM; in assay [2] it was 10 to 100 nM; in assay [3], 10 to 100 nM. Also, the EC50 in assay [4] (setting [5]) was in the range of 10 to 100 nM.
Regarding `CC[C@H](NC(=O)[C@H](C)NC)C(=O)N1C[C@@H](F)C[C@H]1Cc1c(-c2nc3cc(F)ccc3n2C[C@@H]2C[C@H](F)CN2C(=O)[C@H](CC)NC(=O)[C@H](C)NC)[nH]c2cc(F)ccc12` [Embodiment 13], the IC50 in assay [1], in assay [2] and in assay [3] was 10 to 100 nM each time. In addition, the EC50 in assay [4] (setting [5]) was more than 100 nM.
For `CN[C@@H](C)C(=O)N[C@H](C(=O)N1C[C@@H](F)C[C@H]1Cc1c(-c2nc3cc(F)ccc3n2C[C@@H]2C[C@H](F)CN2C(=O)[C@@H](NC(=O)[C@H](C)NC)C2CC2)[nH]c2cc(F)ccc12)C1CC1` [Embodiment 14], the figures for the 50% inhibitory concentration (IC50) in assay [1], in assay [2] and in assay [3] were less than 10 nM, 10 to 100 nM and 10 to 100 nM, respectively. Also, in assay [4] (setting [5]), the EC50 lay in the range of 10 to 100 nM.
On to `CN[C@@H](C)C(=O)N[C@H](C(=O)N1C[C@@H](F)C[C@H]1Cc1c(-c2nc3cc(F)ccc3n2C[C@@H]2C[C@H](F)CN2C(=O)[C@@H](NC(=O)[C@H](C)NC)C(C)C)[nH]c2cc(F)ccc12)C(C)C` [Embodiment 16], for which the results for the half-inhibitory concentration (IC50) in assay [1], in assay [2] and in assay [3] were less than 10 nM, 10 to 100 nM and 10 to 100 nM, respectively. The EC50 in assay [4] (setting [5]) was less than 10 nM; in assay [4] (setting [6]), 0.66 nM.
Take `CN[C@@H](C)C(=O)N[C@H](C(=O)N1C[C@@H](F)C[C@H]1Cc1c(-c2nc3cc(F)ccc3n2C[C@@H]2C[C@H](F)CN2C(=O)[C@@H](NC(=O)[C@H](C)NC)C2CCC2)[nH]c2cc(F)ccc12)C1CCC1` [Embodiment 17]: the concentration for half-maximal inhibition (IC50) in assay [1] is less than 10 nM; in assay [2], 10 to 100 nM; in assay [3], less than 10 nM. The molecule also came in with an EC50 in assay [4] (setting [5]) of less than 10 nM.
For `CC[C@H](NC(=O)[C@H](C)NC)C(=O)N1C[C@@H](F)C[C@H]1Cc1c(-c2nc3cc(F)ccc3n2C[C@@H]2C[C@H](F)CN2C(=O)[C@@H](NC(=O)[C@H](C)NC)C(C)C)[nH]c2cc(F)ccc12` [Embodiment 18], the IC50 was less than 10 nM in assay [1], 10 to 100 nM in assay [2] and 10 to 100 nM in assay [3]. Also, the half-maximal effective concentration (EC50) in assay [4] (setting [5]) is less than 10 nM; in assay [4] (setting [6]) it was 6.05 nM.
For `CC[C@H](NC(=O)[C@H](C)NC)C(=O)N1C[C@@H](F)C[C@H]1Cc1c(-c2nc3cc(F)ccc3n2C[C@@H]2C[C@H](F)CN2C(=O)[C@@H](NC(=O)[C@H](C)NC)C(C)(C)C)[nH]c2cc(F)ccc12` [Embodiment 19], the IC50 in assay [1] is less than 10 nM; in assay [2], 10 to 100 nM; in assay [3] it was 10 to 100 nM. The EC50 in assay [4] (setting [5]) was less than 10 nM.
As to `CC[C@H](NC(=O)[C@H](C)NC)C(=O)N1C[C@@H](F)C[C@H]1Cc1c(-c2nc3cc(F)ccc3n2C[C@@H]2C[C@H](F)CN2C(=O)[C@@H](NC(=O)[C@H](C)NC)C2CCCCC2)[nH]c2cc(F)ccc12` [Embodiment 20], the 50% inhibitory concentration (IC50) in assay [1] was less than 10 nM; in assay [2], 10 to 100 nM; in assay [3] it was 10 to 100 nM. Moreover, the concentration for a half-maximal effect (EC50) in assay [4] (setting [5]) was less than 10 nM.
`CN[C@@H](C)C(=O)N[C@H](C(=O)N1C[C@@H](F)C[C@H]1Cc1c(-c2nc3cc(F)ccc3n2C[C@@H]2C[C@H](F)CN2C(=O)[C@@H](NC(=O)[C@H](C)NC)C2CC2)[nH]c2cc(F)ccc12)C(C)C` [Embodiment 21]: the concentration for half-maximal inhibition (IC50) in assay [1] was less than 10 nM; in assay [2] it was 10 to 100 nM; in assay [3] it was 10 to 100 nM. Moreover, the EC50 in assay [4] (setting [5]) fell in the range of 10 to 100 nM.
In the case of `CN[C@@H](C)C(=O)N[C@H](C(=O)N1C[C@@H](F)C[C@H]1Cn1c(-c2[nH]c3cc(F)ccc3c2C[C@@H]2C[C@H](F)CN2C(=O)[C@@H](NC(=O)[C@H](C)NC)C(C)(C)C)nc2cc(F)ccc21)C1CC1` [Embodiment 22], the figures for the IC50 in assay [1], in assay [2] and in assay [3] were less than 10 nM, 10 to 100 nM and 10 to 100 nM, respectively. This molecule also displayed a 50% effective concentration (EC50) in assay [4] (setting [5]) of less than 10 nM.
As for `CN[C@@H](C)C(=O)N[C@H](C(=O)N1C[C@@H](F)C[C@H]1Cc1c(-c2nc3cc(F)ccc3n2C[C@@H]2C[C@H](F)CN2C(=O)[C@@H](NC(=O)[C@H](C)NC)C2CC2)[nH]c2cc(F)ccc12)C1CCCCC1` [Embodiment 23], the half-maximal inhibitory concentration (IC50) in assay [1] is less than 10 nM; in assay [2] it was less than 10 nM; in assay [3] it was 10 to 100 nM. Further, in assay [4] (setting [5]), the EC50 is less than 10 nM.
Turning to `CC[C@H](NC(=O)[C@H](C)NC)C(=O)N1C[C@@H](F)C[C@H]1Cn1c(-c2[nH]c3cc(F)ccc3c2C[C@@H]2C[C@H](F)CN2C(=O)[C@@H](NC(=O)[C@H](C)NC)C(C)C)nc2cc(F)ccc21` [Embodiment 24], the IC50 in assay [1] is less than 10 nM; in assay [2] it was 10 to 100 nM; in assay [3], 10 to 100 nM. In assay [4] (setting [5]), this molecule yielded an EC50 of 10 to 100 nM.
Take `CC[C@H](NC(=O)[C@H](C)NC)C(=O)N1C[C@@H](F)C[C@H]1Cn1c(-c2[nH]c3cc(F)ccc3c2C[C@@H]2C[C@H](F)CN2C(=O)[C@@H](NC(=O)[C@H](C)NC)C2CC2)nc2cc(F)ccc21` [Embodiment 25]: the 50% inhibitory concentration (IC50) was less than 10 nM in assay [1], 10 to 100 nM in assay [2] and 10 to 100 nM in assay [3]. In assay [4] (setting [5]), this molecule came in with an EC50 of 10 to 100 nM.
Take `CC[C@H](NC(=O)[C@H](C)NC)C(=O)N1C[C@@H](F)C[C@H]1Cn1c(-c2[nH]c3cc(F)ccc3c2C[C@@H]2C[C@H](F)CN2C(=O)[C@@H](NC(=O)[C@H](C)NC)C(C)(C)C)nc2cc(F)ccc21` [Embodiment 26]: the IC50 in assay [1], in assay [2] and in assay [3] was less than 10 nM throughout. The concentration for a half-maximal effect (EC50) in assay [4] (Homo sapiens, Table 3, 20 ng/mL TNF-α, 6 h, Bright-Glo luciferase, values given as ranges) was less than 10 nM.
As for `CC[C@H](NC(=O)[C@H](C)NC)C(=O)N1C[C@@H](F)C[C@H]1Cn1c(-c2[nH]c3cc(F)ccc3c2C[C@@H]2C[C@H](F)CN2C(=O)[C@@H](NC(=O)[C@H](C)NC)C2CCCCC2)nc2cc(F)ccc21` [Embodiment 27], the IC50 in assay [1], in assay [2] and in assay [3] was less than 10 nM each time. In addition, the EC50 in assay [4] (setting [5]) is less than 10 nM.
In the case of `CN[C@@H](C)C(=O)N[C@H](C(=O)N1C[C@@H](F)C[C@H]1Cn1c(-c2[nH]c3cc(F)ccc3c2C[C@@H]2C[C@H](F)CN2C(=O)[C@@H](NC(=O)[C@H](C)NC)C2CC2)nc2cc(F)ccc21)C(C)C` [Embodiment 28], the IC50 in assay [1] was less than 10 nM; in assay [2], 10 to 100 nM; in assay [3], less than 10 nM. Besides, the 50% effective concentration (EC50) in assay [4] (setting [5]) was less than 10 nM.
